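Values below derive from 48-hour exposures of cells grown in 96-well plates, with endpoints linearly interpolated between the two concentrations bracketing the appropriate inhibition level. At the GI50, growth is halved. TGI: total growth inhibition.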 Where only a bound is given, the exact number is not on record here.

Test in all cases: inhibition of tumour cell growth, NCI panel, 48 h
Assay [1] concerns SW-620 colon.
Assay [2] deals with KM12 colon.
The subject of assay [3] is EKVX NSCLC.
Assay [4] deals with SK-OV-3 ovarian.
Assay [5] relates to RPMI-8226 leukemia.
Assay [6] deals with HOP-92 NSCLC.
Assay [7] has as its system HCC-2998 colon.
Assay [8] deals with SF-268 CNS.
In assay [9] the test system is MOLT-4 leukemia.
Assay [10] has as its system NCI-H226 lung.

Turning to `COc1ccc(OC)c(NCC(=O)n2nc(/C=C\c3ccc(O)c(OC)c3)cc2/C=C\c2ccc(O)c(OC)c2)c1`, the GI50 is 2.03 µM in assay [1]; 1.81 µM in assay [2]; 3 µM in [3]; 2.38 µM in assay [4]; 0.702 µM in assay [5]; 4.76 µM in [6]. Further, the GI50 in [7] was 2.04 µM; in assay [8] it was 2.37 µM; in assay [9], 1.11 µM; in assay [10], 3.16 µM. The TGI amounted to 5.48 µM in assay [1]; 4.92 µM in [2]; 15.6 µM in assay [3]; 6.23 µM in [4]; 3.54 µM in assay [5]; 53.8 µM in [6]. Moreover, the TGI in assay [7] was 3.98 µM; in assay [8], > 100 µM; in assay [9] it was 9.21 µM; in assay [10], 16.1 µM.
For `N#C/C(=C\c1cc(OCc2ccccc2)c(OCc2ccccc2)cn1)C(N)=O`, the TGI in assay [1], in assay [2], in assay [3], in assay [4], in assay [5] and in assay [6] was > 100 µM throughout. The TGI in assay [7] was > 100 µM; in [8], > 100 µM; in [9] it was 52.4 µM; in assay [10] it was > 100 µM.
`O=C1Oc2ccccc2C(=O)/C1=C1/C=C(c2ccccc2)SS1`: the TGI in assay [1], in [2], in assay [3], in assay [4], in assay [5] and in [6] was > 100 µM each time. For the same molecule, the TGI is > 100 µM in assay [7], > 100 µM in assay [8], 71.8 µM in assay [9] and > 100 µM in [10].
For `OC1(c2ccc(Cl)c(C(F)(F)F)c2)CCN(CCCC(c2ccc(F)cc2)c2ccc(F)cc2)CC1`, the GI50 in assay [1] was 0.76 µM; in [2], 0.864 µM; in assay [3] it was 1.47 µM; in [4], 1.31 µM; in assay [5], 1.1 µM; in [6] it was 0.448 µM. Further, the GI50 in [7] was 0.762 µM; in assay [8], 0.894 µM; in [9], 1.03 µM; in [10] it was 0.857 µM. The TGI was 1.43 µM in [1]; 1.62 µM in assay [2]; 6.2 µM in [3]; 3.17 µM in assay [4]; 2.67 µM in [5]; 1.17 µM in assay [6]. The TGI in assay [7] came to 1.43 µM; in assay [8], 1.88 µM; in [9], 2.38 µM; in [10] it was 1.81 µM.
`Nc1nc2c(c3cnccc13)C(c1ccc(Cl)c(Cl)c1)Cc1cnccc1-2` (stereo not given): the GI50 in assay [1] was 0.449 µM; in [2], 0.48 µM; in assay [3], 0.971 µM; in assay [4] it was 0.463 µM; in [5] it was 0.788 µM; in assay [6], 1.88 µM. For the same molecule, the GI50 in assay [7] is 1.65 µM; in assay [8], 1.18 µM; in assay [9], 0.48 µM; in assay [10], 1.23 µM. The TGI in assay [1] came out at 11.5 µM; in [2] it was 12.6 µM; in assay [3] it was 17.5 µM; in assay [4] it was 10.8 µM; in assay [5], 12.9 µM; in assay [6], 14.5 µM. The TGI in [7] came out at 7.37 µM; in assay [8], 18.3 µM; in assay [9], 5.48 µM; in assay [10], 3.94 µM.
For the molecule `Nc1ncc(Cc2ccc3c(c2)OCO3)c(N)n1`, the TGI in assay [1], in assay [2], in [3], in assay [4], in [5] and in assay [6] was > 100 µM throughout. In addition, the TGI in assay [7], in assay [8], in [9] and in [10] was > 100 µM in each case.
Regarding `O=C1/C(=C\c2ccccc2)CN(C(=O)CCN2CCCCC2)C/C1=C/c1ccccc1`, the TGI in [1] was 0.364 µM; in [2] it was 1.24 µM; in assay [3] it was 10.6 µM; in [4], 9.77 µM; in [5] it was 0.244 µM; in assay [6], 10.2 µM. The TGI turned out to be 2.81 µM in assay [7], 4.51 µM in assay [8], 0.714 µM in assay [9] and 16.5 µM in [10].
As for `CCc1cccc(C)c1NC(=O)CCc1nc(=S)[nH][nH]1`, the TGI in [1], in assay [2], in [3], in assay [4], in assay [5] and in assay [6] was > 100 µM in each case. In addition, the TGI in assay [7], in [8], in assay [9] and in assay [10] was > 100 µM in each case.
For `CC(=O)ON1CCCC(P(=O)(OCOC(=O)C(C)(C)C)OCOC(=O)C(C)(C)C)C1=O` (stereo not given), the GI50 in [1] was 1.26 µM; in assay [2], 0.51 µM; in assay [3] it was 0.94 µM; in assay [4] it was 0.923 µM; in assay [5], 0.407 µM; in assay [6] it was 0.187 µM. The GI50 was 0.803 µM in assay [7], 0.746 µM in assay [8], 0.511 µM in assay [9] and 0.949 µM in assay [10]. Besides, the TGI in assay [1] was 20.8 µM; in [2] it was 2.54 µM; in [3] it was 11.1 µM; in [4] it was 13.3 µM; in assay [5], 1.89 µM; in [6], 1.82 µM. The TGI in assay [7] turned out to be 3.5 µM; in assay [8] it was 6.25 µM; in [9], 3.65 µM; in assay [10], 7.2 µM.

The values above are taken from PubChem BioAssay (NCI).
